Reference: patent US7064120B2, “Tricyclic pyridyl carboxamides and derivatives thereof tocolytic oxytocin receptor antagonists” (Wyeth, priority 2001, dated 2006)
pIC50: −log10 of the molar value.

Molecular target: T1, human vasopressin V2 receptor subtype (Homo sapiens, UniProt P30518)
T1 construct: host or cells: CHO cells, stably transfected (pZeoSV vector)
Assay: Vasopressin binding in CHO cell membranes expressing human vasopressin V2 subtype receptors ([3H]arginine vasopressin radioligand binding)
Conditions: for pIC50: value in parentheses
Summary of the method: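 Values are IC50 in nM or percent inhibition at a stated concentration, from scintillation counts after filtration. Binding ran 60 min at room temperature: [3H]arginine vasopressin, human V2-transfected CHO membranes (25 to 50 μg protein/well), pH 7.4 Tris-HCl buffer containing MgCl2, BSA, protease inhibitors.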

T1 sequence (P30518 whole entry): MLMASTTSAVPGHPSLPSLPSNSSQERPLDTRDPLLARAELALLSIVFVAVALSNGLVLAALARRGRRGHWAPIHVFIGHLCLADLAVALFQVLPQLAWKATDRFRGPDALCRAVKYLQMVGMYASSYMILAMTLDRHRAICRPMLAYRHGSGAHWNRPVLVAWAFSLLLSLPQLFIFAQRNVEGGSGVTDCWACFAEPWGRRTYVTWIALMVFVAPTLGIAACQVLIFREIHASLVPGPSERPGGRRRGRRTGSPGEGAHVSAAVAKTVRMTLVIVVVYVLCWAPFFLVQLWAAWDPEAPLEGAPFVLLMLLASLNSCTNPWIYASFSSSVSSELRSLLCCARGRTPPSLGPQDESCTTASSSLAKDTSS

| Structure (SMILES) | inhibition at 0.1 µM (100 nM) [%] | other results |
| --- | --- | --- |
| Cc1cc(C(=O)N2Cc3ccc(C(=O)N4CCN(c5ccncc5)CC4)n3Cc3ccccc32)ccc1-c1ccccc1C(F)(F)F [Example 1] | – | V2 % inhibition @ 100 nM (100 nM): 18% |
| Cc1cc(C(=O)N2Cc3ccc(C(=O)N4CCN(Cc5ccc[n+]([O-])c5)CC4)n3Cc3ccccc32)ccc1-c1ccccc1C(F)(F)F [Example 2, 10-{[2-Methyl-2′-trifluoromethyl-[1,1′-biphenyl]-4-yl]carbonyl}-3-({4-[(1-oxidopyridin-3-yl)methyl]piperazin-1-yl}carbonyl)-10,11-dihydro-5H-pyrrolo[2,1-c][1,4]benzodiazepine] | – | pIC50: 5.85 |
| Cc1cc(C(=O)N2Cc3ccc(C(=O)N4CCN(Cc5ccc[n+]([O-])c5C)CC4)n3Cc3ccccc32)ccc1-c1ccccc1C(F)(F)F [Example 3, 3-({4-[(2-Methyl-1-oxidopyridin-3-yl)methyl]piperazin-1-yl}carbonyl)-10-{[2-methyl-2′-trifluoromethyl-[1,1′-biphenyl]-4-yl]carbonyl}-10,11-dihydro-5H-pyrrolo[2,1-c][1,4]benzodiazepine] | – | pIC50: < 5.52 |
| Cc1cc(C(=O)N2Cc3ccc(C(=O)N(C)Cc4ccc[n+]([O-])c4)n3Cc3ccccc32)ccc1-c1ccccc1C(F)(F)F [Example 4, N-Methyl-10-{[2-methyl-2′-trifluoromethyl-[1,1′-biphenyl]-4-yl]carbonyl}-N-[(1-oxidopyridin-3-yl)methyl]-10,11-dihydro-5H-pyrrolo[2,1-c][1,4]benzodiazepine-3-carboxamide] | – | pIC50: 6.33 |
| COc1cc(C(=O)N2Cc3ccc(C(=O)N(C)Cc4cccnc4)n3Cc3ccccc32)ccc1-c1ccccc1C(F)(F)F [Example 7, 10-{[2-Methoxy-2′-trifluoromethyl-[1,1′-biphenyl]-4-yl]carbonyl}-N-methyl-N-(pyridin-3-ylmethyl)-10,11-dihydro-5H-pyrrolo[2,1-c][1,4]benzodiazepine-3-carboxamide] | – | pIC50: 6.39 |
| COc1cccc(-c2ccc(C(=O)N3Cc4ccc(C(=O)N(C)CCc5ccccn5)n4Cc4ccccc43)cc2C)c1 [Example 62, 10-[(3′-Methoxy-2-methyl-[1,1′-biphenyl]-4-yl)carbonyl]-N-methyl-N-[2-(2-pyridinyl)ethyl]-10,11-dihydro-5H-pyrrolo[2,1-c][1,4]benzodiazepine-3-carboxamide] | – | pIC50: 5.83 |
| COc1cc(-c2ccccc2C)c(Cl)cc1C(=O)N1Cc2ccc(C(=O)N(C)CCc3ccccn3)n2Cc2ccccc21 [Example 63, 10-[(6-Chloro-3-methoxy-2′-methyl-[1,1′-biphenyl]-4-yl)carbonyl]-N-methyl-N-[2-(2-pyridinyl)ethyl]-10,11-dihydro-5H-pyrrolo[2,1-c][1,4]benzodiazepine-3-carboxamide] | – | pIC50: 6.15 |
| COc1ccccc1-c1ccc(C(=O)N2Cc3ccc(C(=O)N(C)CCc4ccccn4)n3Cc3ccccc32)cc1C [Example 65, 10-[(2′-Methoxy-2-methyl-[1,1′-biphenyl]-4-yl)carbonyl]-N-methyl-N-[2-(2-pyridinyl)ethyl]-10,11-dihydro-5H-pyrrolo[2,1-c][1,4]benzodiazepine-3-carboxamide] | 16 | – |
| COc1cccc(-c2cc(OC)c(C(=O)N3Cc4ccc(C(=O)N(C)CCc5ccccn5)n4Cc4ccccc43)cc2Cl)c1 [Example 70, 10-[(6-Chloro-3,3′-dimethoxy-[1,1′-biphenyl]-4-yl)carbonyl]-N-methyl-N-[2-(2-pyridinyl)ethyl]-10,11-dihydro-5H-pyrrolo[2,1-c][1,4]benzodiazepine-3-carboxamide] | 10 | – |
| COc1cc(C(=O)N2Cc3ccc(C(=O)N(C)CCc4ccccn4)n3Cc3ccccc32)ccc1-c1cccc2ccccc12 [Example 71, 10-[3-Methoxy-4-(naphthalen-1-yl)benzoyl]-N-methyl-N-[2-(2-pyridinyl)ethyl]-10,11-dihydro-5H-pyrrolo[2,1-c][1,4]benzodiazepine-3-carboxamide] | 24 | – |
| Cc1cc(C(=O)N2Cc3ccc(C(=O)N(C)CCc4ccccn4)n3Cc3ccccc32)ccc1-c1ccccc1C(F)(F)F [Example 74, N-Methyl-10-{[2-methyl-2′-trifluoromethyl-[1,1′-biphenyl]-4-yl]carbonyl}-N-[2-(2-pyridinyl)ethyl]-10,11-dihydro-5H-pyrrolo[2,1-c][1,4]benzodiazepine-3-carboxamide] | 1 | – |
| COc1cccc(-c2ccc(C(=O)N3Cc4ccc(C(=O)N5CCN(c6ccccn6)CC5)n4Cc4ccccc43)cc2C)c1 [Example 77, {10-[(3′-Methoxy-2-methyl-[1,1′-biphenyl]-4-yl)carbonyl]-10,11-dihydro-5H-pyrrolo[2,1-c][1,4]benzodiazepin-3-yl}[4-(2-pyridinyl)-1-piperazinyl]methanone] | 10 | – |
| Cc1ccccc1-c1ccc(C(=O)N2Cc3ccc(C(=O)N4CCN(c5ccccn5)CC4)n3Cc3ccccc32)cc1 [Example 79, {10-[(2′-Methyl-[1,1′-biphenyl]-4-yl)carbonyl]-10,11-dihydro-5H-pyrrolo[2,1-c][1,4]benzodiazepin-3-yl}[4-(2-pyridinyl)-1-piperazinyl]methanone] | 10 | – |
| COc1cccc(-c2cc(OC)c(C(=O)N3Cc4ccc(C(=O)N5CCN(c6ccccn6)CC5)n4Cc4ccccc43)cc2Cl)c1 [Example 82, {10-[(6-Chloro-3,3′-dimethoxy-[1,1′-biphenyl]-4-yl)carbonyl]-10,11-dihydro-5H-pyrrolo[2,1-c][1,4]benzodiazepin-3-yl}[4-(2-pyridinyl)-1-piperazinyl]methanone] | 8 | – |
| COc1ccccc1-c1ccc(C(=O)N2Cc3ccc(C(=O)N4CCN(c5ccccn5)CC4)n3Cc3ccccc32)cc1OC [Example 84, {10-[(2,2′-Dimethoxy-[1,1′-biphenyl]-4-yl)carbonyl]-10,11-dihydro-5H-pyrrolo[2,1-c][1,4]benzodiazepin-3-yl}[4-(2-pyridinyl)-1-piperazinyl]methanone] | 14 | – |

Second part, led by results:

| inhibition at 0.1 µM (100 nM) [%] | Structure (SMILES) | other results |
| --- | --- | --- |
| 24 | Cc1ccccc1-c1ccc(C(=O)N2Cc3ccc(C(=O)N(C)CCc4ccccn4)n3Cc3ccccc32)cc1C [Example 66, 10-[(2,2′-Dimethyl-[1,1′-biphenyl]-4-yl)carbonyl]-N-methyl-N-[2-(2-pyridinyl)ethyl]-10,11-dihydro-5H-pyrrolo[2,1-c][1,4]benzodiazepine-3-carboxamide] | – |
| 24 | COc1ccccc1-c1ccc(C(=O)N2Cc3ccc(C(=O)N(C)CCc4ccccn4)n3Cc3ccccc32)cc1 [Example 67, 10-[(2′-Methoxy-[1,1′-biphenyl]-4-yl)carbonyl]-N-methyl-N-[2-(2-pyridinyl)ethyl]-10,11-dihydro-5H-pyrrolo[2,1-c][1,4]benzodiazepine-3-carboxamide] | – |
| 13 | Cc1ccccc1-c1ccc(C(=O)N2Cc3ccc(C(=O)N(C)CCc4ccccn4)n3Cc3ccccc32)cc1 [Example 68, N-Methyl-10-[(2′-methyl-[1,1′-biphenyl]-4-yl)carbonyl]-N-[2-(2-pyridinyl)ethyl]-10,11-dihydro-5H-pyrrolo[2,1-c][1,4]benzodiazepine-3-carboxamide] | – |
| 15 | COc1cc(C(=O)N2Cc3ccc(C(=O)N(C)CCc4ccccn4)n3Cc3ccccc32)ccc1-c1ccccc1C [Example 69, 10-[(2-Methoxy-2′-methyl-[1,1′-biphenyl]-4-yl)carbonyl]-N-methyl-N-[2-(2-pyridinyl)ethyl]-10,11-dihydro-5H-pyrrolo[2,1-c][1,4]benzodiazepine-3-carboxamide] | – |
| 11 | COc1cccc(-c2ccc(C(=O)N3Cc4ccc(C(=O)N(C)CCc5ccccn5)n4Cc4ccccc43)cc2OC)c1 [Example 72, 10-[(2,3′-Dimethoxy-[1,1′-biphenyl]-4-yl)carbonyl]-N-methyl-N-[2-(2-pyridinyl)ethyl]-10,11-dihydro-5H-pyrrolo[2,1-c][1,4]benzodiazepine-3-carboxamide] | – |
| 16 | CN(CCc1ccccn1)C(=O)c1ccc2n1Cc1ccccc1N(C(=O)c1ccc(-c3cccc4ccccc34)cc1Cl)C2 [Example 73, 10-[2-Chloro-4-(naphthalen-1-yl)benzoyl]-N-methyl-N-[2-(2-pyridinyl)ethyl]-10,11-dihydro-5H-pyrrolo[2,1-c][1,4]benzodiazepine-3-carboxamide] | – |
| 9 | COc1ccccc1-c1ccc(C(=O)N2Cc3ccc(C(=O)N4CCN(c5ccccn5)CC4)n3Cc3ccccc32)cc1C [Example 75, {10-[(2′-Methoxy-2-methyl-[1,1′-biphenyl]-4-yl)carbonyl]-10,11-dihydro-5H-pyrrolo[2,1-c][1,4]benzodiazepin-3-yl}[4-(2-pyridinyl)-1-piperazinyl]methanone] | – |
| 21 | Cc1ccccc1-c1ccc(C(=O)N2Cc3ccc(C(=O)N4CCN(c5ccccn5)CC4)n3Cc3ccccc32)cc1C [Example 76, {10-[(2,2′-Dimethyl-[1,1′-biphenyl]-4-yl)carbonyl]-10,11-dihydro-5H-pyrrolo[2,1-c][1,4]benzodiazepin-3-yl}[4-(2-pyridinyl)-1-piperazinyl]methanone] | – |
| 8 | COc1ccccc1-c1ccc(C(=O)N2Cc3ccc(C(=O)N4CCN(c5ccccn5)CC4)n3Cc3ccccc32)cc1 [Example 78, {10-[(2′-Methoxy-[1,1′-biphenyl]-4-yl)carbonyl]-10,11-dihydro-5H-pyrrolo[2,1-c][1,4]benzodiazepin-3-yl}[4-(2-pyridinyl)-1-piperazinyl]methanone] | – |
| 8 | COc1cc(C(=O)N2Cc3ccc(C(=O)N4CCN(c5ccccn5)CC4)n3Cc3ccccc32)ccc1-c1ccccc1C [Example 80, {10-[(2-Methoxy-2′-methyl-[1,1′-biphenyl]-4-yl)carbonyl]-10,11-dihydro-5H-pyrrolo[2,1-c][1,4]benzodiazepin-3-yl}[4-(2-pyridinyl)-1-piperazinyl]methanone] | – |
| 5 | COc1cc(-c2ccccc2C)c(Cl)cc1C(=O)N1Cc2ccc(C(=O)N3CCN(c4ccccn4)CC3)n2Cc2ccccc21 [Example 81, {10-[(6-Chloro-3-methoxy-2′-methyl-[1,1′-biphenyl]-4-yl)carbonyl]-10,11-dihydro-5H-pyrrolo[2,1-c][1,4]benzodiazepin-3-yl}[4-(2-pyridinyl)-1-piperazinyl]methanone] | – |
